In US10519163B2, “Pyrrolopyrimidine derivatives as TAM inhibitors” (Incyte Corporation, priority 2015, dated 2019):
pIC50: −log10 of the molar value. Where two headings read alike, the source gives them in different places.

What was measured:
[1] = biological target: JAK2 (Homo sapiens (Human), UniProt O60674); settings: selectivity ratio, IC50 at 1 mM ATP; cited from earlier work
[2] = biological target: c-Mer (Homo sapiens (Human), UniProt Q12866); assay: TAM Kinase Assay (HTRF), c-Mer; assay type: biochemical
Protocol: (§1) 0.1 ul test compounds dissolved in DMSO were transferred from compound plates to white 384-well assay plates (Greiner [sequence] plates). […] The plate was protected from light and incubated at room temperature for 60 min.

[3] = biological target: phosphor-Axl (Homo sapiens (Human), UniProt P30530); assay: TAM Kinase Assay (HTRF), phosphor-Axl; assay type: biochemical; settings: read-out: Phospho-Axl IC50;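 note: test enzyme was recombinant Axl protein, pre-activated by autophosphorylation with ATP and MgCl2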
Protocol: Autophosphorylation of Axl was carried out by incubating the recombinant Axl protein (Life Technologies, PV4275) in buffer containing 50 mM Tris, pH7.5, 0.2 mg/ml Axl, 5 mM ATP, 20 mM MgCl2 and 2 mM DTT at room temperature for 1 hour.
as §1

[4] = biological target: Tyro3 (Homo sapiens (Human), UniProt Q06418); assay: TAM Kinase Assay (HTRF), Tyro3; assay type: biochemical; settings: 0.366 nM Tyro3, HTRF, 60 min room temperature; read-out: Tyro3IC50
Protocol: as §1

[5] = biological target: JAK1 (Homo sapiens (Human), UniProt P23458); settings: cited from earlier work
[6] = biological target: PI3Kδ (Homo sapiens (Human), UniProt O00329); settings: cited from earlier work
[7] = tested on: NK cells; settings: cited from earlier work
[8] = tested on: tumor models with different histologies; settings: cited from earlier work
[9] = 0.0625 nM c-Mer, HTRF, 60 min room temperature, read-out: c-Mer IC50
[10] = 5.1 nM phosphor-Axl, HTRF, 60 min room temperature

Sequence of phosphor-Axl (P30530 26-894): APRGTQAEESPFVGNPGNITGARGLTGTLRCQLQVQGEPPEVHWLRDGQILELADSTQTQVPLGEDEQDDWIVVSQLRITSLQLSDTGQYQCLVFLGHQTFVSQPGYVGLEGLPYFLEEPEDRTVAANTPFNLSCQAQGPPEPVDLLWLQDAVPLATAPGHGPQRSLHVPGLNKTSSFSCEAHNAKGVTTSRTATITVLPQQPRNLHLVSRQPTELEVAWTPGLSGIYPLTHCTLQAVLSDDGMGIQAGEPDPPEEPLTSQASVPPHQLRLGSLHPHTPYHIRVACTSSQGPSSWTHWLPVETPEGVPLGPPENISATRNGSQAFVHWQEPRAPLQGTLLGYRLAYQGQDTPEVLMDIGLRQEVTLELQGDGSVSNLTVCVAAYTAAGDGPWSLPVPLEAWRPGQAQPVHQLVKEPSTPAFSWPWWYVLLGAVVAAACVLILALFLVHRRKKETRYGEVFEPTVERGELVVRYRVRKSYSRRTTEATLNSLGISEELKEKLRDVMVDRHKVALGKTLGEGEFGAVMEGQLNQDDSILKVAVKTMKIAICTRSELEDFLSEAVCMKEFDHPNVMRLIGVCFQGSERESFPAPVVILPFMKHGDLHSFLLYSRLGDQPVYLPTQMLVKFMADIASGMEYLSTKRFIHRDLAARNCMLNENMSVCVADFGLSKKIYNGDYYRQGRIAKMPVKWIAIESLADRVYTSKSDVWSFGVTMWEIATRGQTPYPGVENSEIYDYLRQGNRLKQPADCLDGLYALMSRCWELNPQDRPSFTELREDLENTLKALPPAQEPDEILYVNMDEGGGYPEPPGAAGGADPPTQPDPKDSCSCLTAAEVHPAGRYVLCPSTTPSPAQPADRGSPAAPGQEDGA
Sequence of Tyro3 (Q06418 41-890): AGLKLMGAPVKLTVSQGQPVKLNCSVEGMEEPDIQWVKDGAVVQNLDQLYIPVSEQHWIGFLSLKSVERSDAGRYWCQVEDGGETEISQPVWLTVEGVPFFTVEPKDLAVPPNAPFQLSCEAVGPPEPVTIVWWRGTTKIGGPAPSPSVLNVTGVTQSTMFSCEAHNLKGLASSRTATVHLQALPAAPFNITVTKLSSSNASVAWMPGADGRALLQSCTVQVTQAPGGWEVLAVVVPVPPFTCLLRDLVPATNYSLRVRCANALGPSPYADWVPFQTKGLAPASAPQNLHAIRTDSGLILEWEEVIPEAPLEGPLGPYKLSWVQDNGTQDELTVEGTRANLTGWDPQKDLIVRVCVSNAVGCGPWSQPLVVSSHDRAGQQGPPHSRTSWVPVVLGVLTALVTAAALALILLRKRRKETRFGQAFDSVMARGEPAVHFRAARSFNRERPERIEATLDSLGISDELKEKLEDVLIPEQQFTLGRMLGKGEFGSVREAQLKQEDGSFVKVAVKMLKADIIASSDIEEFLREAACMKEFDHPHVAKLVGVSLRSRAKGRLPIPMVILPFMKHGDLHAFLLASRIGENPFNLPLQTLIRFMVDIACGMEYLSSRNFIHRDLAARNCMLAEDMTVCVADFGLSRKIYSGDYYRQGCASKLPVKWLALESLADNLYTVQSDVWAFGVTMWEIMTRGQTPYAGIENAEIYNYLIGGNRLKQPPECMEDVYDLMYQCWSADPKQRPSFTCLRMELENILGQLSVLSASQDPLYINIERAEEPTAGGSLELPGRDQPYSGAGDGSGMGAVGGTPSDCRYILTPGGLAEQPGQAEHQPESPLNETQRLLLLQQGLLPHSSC
Sequence of JAK2 (O60674 whole entry, species assumed): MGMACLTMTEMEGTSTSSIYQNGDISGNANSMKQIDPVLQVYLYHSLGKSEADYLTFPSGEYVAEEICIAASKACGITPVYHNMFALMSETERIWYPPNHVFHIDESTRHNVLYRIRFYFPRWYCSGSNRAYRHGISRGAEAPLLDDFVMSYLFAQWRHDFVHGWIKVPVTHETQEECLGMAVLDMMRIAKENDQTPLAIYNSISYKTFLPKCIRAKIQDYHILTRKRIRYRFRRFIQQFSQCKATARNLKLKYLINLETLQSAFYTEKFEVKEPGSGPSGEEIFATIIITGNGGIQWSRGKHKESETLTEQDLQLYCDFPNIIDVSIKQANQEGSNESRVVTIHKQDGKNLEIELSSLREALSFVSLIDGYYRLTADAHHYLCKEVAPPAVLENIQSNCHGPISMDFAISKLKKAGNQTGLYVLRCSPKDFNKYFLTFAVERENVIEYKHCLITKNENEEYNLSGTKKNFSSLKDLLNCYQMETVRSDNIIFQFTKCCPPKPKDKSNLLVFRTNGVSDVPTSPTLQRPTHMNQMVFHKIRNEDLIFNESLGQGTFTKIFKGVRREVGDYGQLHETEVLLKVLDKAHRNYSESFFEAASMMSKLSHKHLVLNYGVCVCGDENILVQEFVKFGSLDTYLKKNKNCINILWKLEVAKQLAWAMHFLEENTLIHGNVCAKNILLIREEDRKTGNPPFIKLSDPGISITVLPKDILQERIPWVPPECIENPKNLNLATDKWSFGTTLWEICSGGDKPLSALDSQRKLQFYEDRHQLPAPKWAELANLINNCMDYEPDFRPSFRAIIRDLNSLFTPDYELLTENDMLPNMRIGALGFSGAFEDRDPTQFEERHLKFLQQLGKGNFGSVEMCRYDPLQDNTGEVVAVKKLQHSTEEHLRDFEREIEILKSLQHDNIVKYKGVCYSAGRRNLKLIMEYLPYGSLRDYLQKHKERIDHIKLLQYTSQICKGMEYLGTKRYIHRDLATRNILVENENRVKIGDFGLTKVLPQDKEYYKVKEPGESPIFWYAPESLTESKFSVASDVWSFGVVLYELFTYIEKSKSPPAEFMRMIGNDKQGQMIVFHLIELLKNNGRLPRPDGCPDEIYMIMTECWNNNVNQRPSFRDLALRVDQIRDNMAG
Sequence of PI3Kδ (O00329 whole entry, looked up, species assumed): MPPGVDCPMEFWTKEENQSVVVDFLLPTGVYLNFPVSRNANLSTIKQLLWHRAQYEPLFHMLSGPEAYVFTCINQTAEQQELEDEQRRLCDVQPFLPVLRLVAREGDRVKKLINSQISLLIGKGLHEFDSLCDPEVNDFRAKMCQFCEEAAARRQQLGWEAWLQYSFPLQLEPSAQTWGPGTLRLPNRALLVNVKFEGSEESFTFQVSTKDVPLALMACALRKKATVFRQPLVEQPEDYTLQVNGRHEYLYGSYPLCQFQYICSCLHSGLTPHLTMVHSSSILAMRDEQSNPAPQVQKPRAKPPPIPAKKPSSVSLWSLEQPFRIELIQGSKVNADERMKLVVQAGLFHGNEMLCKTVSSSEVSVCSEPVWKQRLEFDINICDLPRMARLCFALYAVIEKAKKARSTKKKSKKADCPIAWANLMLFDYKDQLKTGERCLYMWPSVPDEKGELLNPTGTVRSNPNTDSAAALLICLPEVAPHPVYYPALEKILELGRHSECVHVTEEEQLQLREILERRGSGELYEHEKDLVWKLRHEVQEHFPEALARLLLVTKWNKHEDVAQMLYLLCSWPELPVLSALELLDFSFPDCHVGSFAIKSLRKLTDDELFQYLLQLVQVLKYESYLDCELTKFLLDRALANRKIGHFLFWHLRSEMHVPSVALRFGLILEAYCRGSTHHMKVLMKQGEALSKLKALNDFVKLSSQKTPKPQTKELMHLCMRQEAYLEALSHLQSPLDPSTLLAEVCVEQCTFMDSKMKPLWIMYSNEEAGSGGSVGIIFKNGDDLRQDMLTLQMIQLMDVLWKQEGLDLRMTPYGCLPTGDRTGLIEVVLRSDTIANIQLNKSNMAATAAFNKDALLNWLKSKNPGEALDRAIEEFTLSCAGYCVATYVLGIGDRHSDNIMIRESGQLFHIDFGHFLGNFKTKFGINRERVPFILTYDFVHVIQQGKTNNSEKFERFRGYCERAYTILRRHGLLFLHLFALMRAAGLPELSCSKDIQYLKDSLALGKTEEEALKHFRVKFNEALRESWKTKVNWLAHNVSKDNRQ
Sequence of PI3Kδ (P27986 whole entry partner, looked up, species assumed): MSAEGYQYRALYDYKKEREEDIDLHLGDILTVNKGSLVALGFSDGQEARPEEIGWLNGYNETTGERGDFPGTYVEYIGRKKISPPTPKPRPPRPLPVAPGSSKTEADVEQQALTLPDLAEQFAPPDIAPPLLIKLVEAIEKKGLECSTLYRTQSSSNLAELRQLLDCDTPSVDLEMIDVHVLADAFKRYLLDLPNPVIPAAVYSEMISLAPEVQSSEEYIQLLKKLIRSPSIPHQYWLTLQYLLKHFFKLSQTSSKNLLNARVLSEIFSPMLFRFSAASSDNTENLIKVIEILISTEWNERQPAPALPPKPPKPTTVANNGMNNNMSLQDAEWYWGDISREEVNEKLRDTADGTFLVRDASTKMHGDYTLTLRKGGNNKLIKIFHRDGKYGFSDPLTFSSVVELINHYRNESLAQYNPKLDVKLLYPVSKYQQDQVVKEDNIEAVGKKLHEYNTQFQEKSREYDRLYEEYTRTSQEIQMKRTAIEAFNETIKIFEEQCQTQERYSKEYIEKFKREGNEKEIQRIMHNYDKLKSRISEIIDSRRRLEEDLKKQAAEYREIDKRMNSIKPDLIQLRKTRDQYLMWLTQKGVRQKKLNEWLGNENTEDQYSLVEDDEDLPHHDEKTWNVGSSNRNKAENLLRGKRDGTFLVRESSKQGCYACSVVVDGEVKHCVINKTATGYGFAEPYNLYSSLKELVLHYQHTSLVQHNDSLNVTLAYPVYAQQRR

| Structure (SMILES) | pIC50 [2, 9] | pIC50 [3, 10] | pIC50 [4] | other results |
| --- | --- | --- | --- | --- |
| N#CCC1(n2cc(-c3ncnc4[nH]ccc34)cn2)CN(C2CCN(C(=O)c3ccnc(C(F)(F)F)n3)CC2)C1 [Compound 9, [3-[4-(7H-pyrrolo[2,3-d]pyrimidin-4-yl)-1H-pyrazol-1-yl]-1-(1-{[2-(trifluoromethyl)pyrimidin-4-yl]carbonyl}piperidin-4-yl)azetidin-3-yl]acetonitrile, reference compound] |  |  |  | JAK2/JAK1 [1]: >10 |
| NCC1(c2cncc(-c3ncnc4[nH]ccc34)c2)Cc2ccccc2C1 [Example 1, 1-{2-[5-(7H-Pyrrolo[2,3-d]pyrimidin-4-yl)pyridin-3-yl]-2,3-dihydro-1H-inden-2-yl}methanamine] | > 6.30 | > 6.30 | < 5.52 |  |
| NCC1(c2cccc(-c3ncnc4[nH]ccc34)n2)Cc2ccccc2C1 [Example 2, 1-{2-[6-(7H-Pyrrolo[2,3-d]pyrimidin-4-yl)pyridin-2-yl]-2,3-dihydro-1H-inden-2-yl}methanamine] | 5.52 to 6.00 | 5.52 to 6.00 | < 5.52 |  |
| NCC1(c2cc(-c3ncnc4[nH]ccc34)ccn2)Cc2ccccc2C1 [Example 3, 1-{2-[4-(7H-Pyrrolo[2,3-d]pyrimidin-4-yl)pyridin-2-yl]-2,3-dihydro-1H-inden-2-yl}methanamine] | > 6.30 | > 6.30 | 5.52 to 6.00 |  |
| NCC1(c2ccnc(-c3ncnc4[nH]ccc34)c2)Cc2ccccc2C1 [Example 4, 1-{2-[2-(7H-Pyrrolo[2,3-d]pyrimidin-4-yl)pyridin-4-yl]-2,3-dihydro-1H-inden-2-yl}methanamine] | 6.00 to 6.30 | 6.00 to 6.30 | < 5.52 |  |
| NCC1(c2cccc(-c3ncnc4[nH]ccc34)c2)Cc2ccncc2C1 (stereo not drawn) [Example 5, 1-{6-[3-(7H-Pyrrolo[2,3-d]pyrimidin-4-yl)phenyl]-6,7-dihydro-5H-cyclopenta[c]pyridin-6-yl}methanamine] | > 6.30 | > 6.30 | 5.52 to 6.00 |  |
| NCC1(c2cccc(-c3ncnc4[nH]ccc34)c2)Cc2cccnc2C1 (stereo not drawn) [Example 6, 1-{6-[3-(7H-Pyrrolo[2,3-d]pyrimidin-4-yl)phenyl]-6,7-dihydro-5H-cyclopenta[b]pyridin-6-yl}methanamine] | > 6.30 | > 6.30 | < 5.52 |  |
| NCC1(c2cc(-c3ncnc4[nH]ccc34)cc(Cl)n2)Cc2ccccc2C1 [Example 7, 1-{2-[6-Chloro-4-(7H-pyrrolo[2,3-d]pyrimidin-4-yl)pyridin-2-yl]-2,3-dihydro-1H-inden-2-yl}methanamine] | > 6.30 | > 6.30 | < 5.52 |  |
| CC(=O)NCC1(c2cc(-c3ncnc4[nH]ccc34)ccn2)Cc2ccccc2C1 [Example 8, N-({2-[4-(7H-Pyrrolo[2,3-d]pyrimidin-4-yl)pyridin-2-yl]-2,3-dihydro-1H-inden-2-yl}methyl)acetamide] |  | 5.52 to 6.00 | < 5.52 |  |
| CC(=O)NCC1(c2cccc(-c3ncnc4[nH]ccc34)c2)Cc2ccncc2C1 (stereo not drawn) [Example 10, N-({6-[3-(7H-Pyrrolo[2,3-d]pyrimidin-4-yl)phenyl]-6,7-dihydro-5H-cyclopenta[c]pyridin-6-yl}methyl)acetamide] |  | 5.52 to 6.00 | < 5.52 |  |
| NCC1(c2cccc(-c3ncnc4[nH]ccc34)c2)Cc2ccccc2C1 [Example 11, 1-{2-[3-(7H-Pyrrolo[2,3-d]pyrimidin-4-yl)phenyl]-2,3-dihydro-1H-inden-2-yl}methanamine] | > 6.30 | > 6.30 | 5.52 to 6.00 |  |
| OCC1(c2cccc(-c3ncnc4[nH]ccc34)c2)Cc2ccccc2C1 [Example 12, {2-[3-(7H-Pyrrolo[2,3-d]pyrimidin-4-yl)phenyl]-2,3-dihydro-1H-inden-2-yl}methanol] | > 6.30 | > 6.30 | < 5.52 |  |
| O=C(NCC1(c2cccc(-c3ncnc4[nH]ccc34)c2)Cc2ccccc2C1)C1CCC1 [Example 26, N-({2-[3-(7H-Pyrrolo[2,3-d]pyrimidin-4-yl)phenyl]-2,3-dihydro-1H-inden-2-yl}methyl)cyclobutanecarboxamide] |  | > 6.30 | < 5.52 | pIC50 [5]: > 8.00; JAK2/JAK1 [1]: >10 |
| Cn1cc(C(=O)NCC2(c3cccc(-c4ncnc5[nH]ccc45)c3)Cc3ccccc3C2)cn1 [Example 33, 1-Methyl-N-({2-[3-(7H-pyrrolo[2,3-d]pyrimidin-4-yl)phenyl]-2,3-dihydro-1H-inden-2-yl}methyl)-1H-pyrazole-4-carboxamide] |  |  | < 5.52 | pIC50 [2]: < 5.52; pIC50 [3]: < 5.52 |
| CCOc1cn(-c2ccc(F)cc2C)nc1C(=O)Nc1ccc(Oc2ccnc3cc(OC)c(OC)cc23)c(F)c1 [LDC1267] |  |  |  | activation of NK cells [7]: activates NK cells; metastasis in tumor models [8]: blocks metastasis |

Second part, led by results:

| pIC50 [2, 9] | pIC50 [3, 10] | pIC50 [4] | Structure (SMILES) | other results |
| --- | --- | --- | --- | --- |
| > 6.30 | > 6.30 | < 5.52 | CC(=O)NCC1(c2cccc(-c3ncnc4[nH]ccc34)c2)Cc2ccccc2C1 [Example 16, N-({2-[3-(7H-Pyrrolo[2,3-d]pyrimidin-4-yl)phenyl]-2,3-dihydro-1H-inden-2-yl}methyl)acetamide] |  |
| > 6.30 | > 6.30 | < 5.52 | CC(C)C(=O)NCC1(c2cccc(-c3ncnc4[nH]ccc34)c2)Cc2ccccc2C1 [Example 17, 2-Methyl-N-({2-[3-(7H-pyrrolo[2,3-d]pyrimidin-4-yl)phenyl]-2,3-dihydro-1H-inden-2-yl}methyl)propanamide] |  |
| > 6.30 | > 6.30 | < 5.52 | O=C(NCC1(c2cccc(-c3ncnc4[nH]ccc34)c2)Cc2ccccc2C1)C1CC1 [Example 18, N-({2-[3-(7H-Pyrrolo[2,3-d]pyrimidin-4-yl)phenyl]-2,3-dihydro-1H-inden-2-yl}methyl)cyclopropanecarboxamide] |  |
| < 5.52 | < 5.52 | < 5.52 | FCC1(c2cccc(-c3ncnc4[nH]ccc34)c2)Cc2ccccc2C1 [Example 19, 4-{3-[2-(Fluoromethyl)-2,3-dihydro-1H-inden-2-yl]phenyl}-7H-pyrrolo[2,3-d]pyrimidine] |  |
| < 5.52 | < 5.52 | < 5.52 | FC(F)C1(c2cccc(-c3ncnc4[nH]ccc34)c2)Cc2ccccc2C1 [Example 20, 4-{3-[2-(Difluoromethyl)-2,3-dihydro-1H-inden-2-yl]phenyl}-7H-pyrrolo[2,3-d]pyrimidine] |  |
| 5.52 to 6.00 | 6.00 to 6.30 | < 5.52 | CS(=O)(=O)NCC1(c2cccc(-c3ncnc4[nH]ccc34)c2)Cc2ccccc2C1 [Example 21, N-({2-[3-(7H-Pyrrolo[2,3-d]pyrimidin-4-yl)phenyl]-2,3-dihydro-1H-inden-2-yl}methyl)methanesulfonamide] |  |
| > 6.30 | > 6.30 | < 5.52 | COC(=O)NCC1(c2cccc(-c3ncnc4[nH]ccc34)c2)Cc2ccccc2C1 [Example 22, Methyl ({2-[3-(7H-pyrrolo[2,3-d]pyrimidin-4-yl)phenyl]-2,3-dihydro-1H-inden-2-yl}methyl)carbamate] |  |
| > 6.30 | > 6.30 | < 5.52 | CN(C)CC1(c2cccc(-c3ncnc4[nH]ccc34)c2)Cc2ccccc2C1 [Example 23, N,N-Dimethyl-1-{2-[3-(7H-pyrrolo[2,3-d]pyrimidin-4-yl)phenyl]-2,3-dihydro-1H-inden-2-yl}methanamine] |  |
| > 6.30 | > 6.30 | < 5.52 | CNCC1(c2cccc(-c3ncnc4[nH]ccc34)c2)Cc2ccccc2C1 [Example 24, N-Methyl-1-{2-[3-(7H-pyrrolo[2,3-d]pyrimidin-4-yl)phenyl]-2,3-dihydro-1H-inden-2-yl}methanamine] |  |
| < 5.52 | 5.52 to 6.00 | < 5.52 | COCC1(c2cccc(-c3ncnc4[nH]ccc34)c2)Cc2ccccc2C1 [Example 25, 4-{3-[2-(Methoxymethyl)-2,3-dihydro-1H-inden-2-yl]phenyl}-7H-pyrrolo[2,3-d]pyrimidine] |  |
|  | > 6.30 | < 5.52 | O=C(NCC1(c2cccc(-c3ncnc4[nH]ccc34)c2)Cc2ccccc2C1)C1CCCC1 [Example 27, N-({2-[3-(7H-Pyrrolo[2,3-d]pyrimidin-4-yl)phenyl]-2,3-dihydro-1H-inden-2-yl}methyl)cyclopentanecarboxamide] |  |
| < 5.52 | 5.52 to 6.00 | < 5.52 | O=C(NCC1(c2cccc(-c3ncnc4[nH]ccc34)c2)Cc2ccccc2C1)c1cccs1 [Example 28] |  |
| < 5.52 | < 5.52 | < 5.52 | O=C(NCC1(c2cccc(-c3ncnc4[nH]ccc34)c2)Cc2ccccc2C1)c1ccno1 [Example 31, N-({2-[3-(7H-Pyrrolo[2,3-d]pyrimidin-4-yl)phenyl]-2,3-dihydro-1H-inden-2-yl}methyl)isoxazole-5-carboxamide] |  |
|  |  | < 5.52 | O=C(NCC1(c2cccc(-c3ncnc4[nH]ccc34)c2)Cc2ccccc2C1)c1ccco1 [Example 34, N-({2-[3-(7H-Pyrrolo[2,3-d]pyrimidin-4-yl)phenyl]-2,3-dihydro-1H-inden-2-yl}methyl)-2-furamide] | pIC50 [6]: 7.00 to 7.30 |
